The text below walks through data of PMC5915149, “The role of oxidative stress in activity of anticancer thiosemicarbazones” (Oncotarget, 2018).

One assay has as its system p21. The assay is described as follows: Western blot of p21. The assay is classed as cell-based, human. The conditions noted are these: HCT116, 1 µM. The protocol:
(§1) The HCT116 cells were seeded in 3 cm Petri dishes (Nunc) at a density of 0.5·10^6 cells/well and incubated overnight. The next day, solutions of TSC (1 μM) and DOX (5 μM) were added and the cells incubated for 24 or 48 h. Cells were harvested by trypsinization and washed with cold PBS. Next, the cells were centrifuged and suspended in an RIPA buffer (Thermo Scientific) containing Halt Protease Inhibitor Cocktail (Thermo Scientific), Halt Phosphatase Inhibitor Cocktail (Thermo Scientific) along with 0.5 M EDTA and lysed for 20 min on ice. Then, the lysates were sonicated, centrifuged at 10,000 rpm for 10 min at 4° C and the supernatants were collected for further analysis. The protein concentration was determined using a Micro BCA™ Protein Assay Kit (Thermo Scientific) according to the manufacturer’s instructions. Equal amounts of the proteins (20 μg) were electrophoresed on SDS-Page gels and transferred onto a nitrocellulose membranes. The membranes were blocked in 5% non-fat milk prepared in PBS containing 0.1% Tween-20 (TPBS) for 1 h. After blocking, the membranes were incubated with specific primary antibodies: cdc2 (#POH1, Cell Signaling), p21^Waf1/Cip1 (#12D1, Cell Signaling), p53 (#1C12, Cell Signaling) and β-Actin (#8H10D10, Cell Signaling) overnight at 4° C, then washed and incubated with horseradish peroxidase (HRP)-conjugated secondary antibodies for 1h at room temperature. All of antibodies were diluted 1:1000 in 5% milk in TPBS. Finally, the membranes were washed and incubated with a SuperSignal™ West Pico Chemiluminescent Substrate (Thermo Scientific). The chemiluminescence signals were captured using a ChemiDoc™ XRS+ System (BioRad). The experiments were performed at least three times. Densitometric analysis was performed using ImageJ 1.41 software (Wayne Rasband, National Institutes of Health, USA).

The test system of the next assay is MCF-7. The assay is described as follows: MTS antiproliferative assay, MCF-7 (with or without added metal ions). Type of assay: cell-based, human. The protocol: (§2) The cells were seeded in 96-well plates (Nunc) at a density of 3,500 cells/well (HCT116 and MCF-7) and 3,000 cells/well (NHDF) and incubated at 37° C for 24 h. The assay was performed following a 96 h incubation with varying concentrations of the compounds that were being tested. Then, 20 µL of CellTiter 96® AQueous One Solution-MTS (Promega) was added to each well (with 100 µL DMEM without phenol red) and incubated for 1 h at 37° C. The optical densities of the samples were analyzed at 490 nm using a multi-plate reader (Synergy 4, Bio Tek). Results were expressed as a percentage of the control and calculated as the inhibitory concentration (IC50) values (using GraphPad Prism 5). The IC50 parameter was defined as the compound concentration that was necessary to reduce the proliferation of cells to 50% of the untreated control. Each individual compound was tested in triplicate in a single experiment with each experiment being repeated three or four times.
(§3) The HCT116 and MCF-7 cells were seeded in 96-well plates (Nunc) at a density of 3,500 cells/well and incubated at 37° C for 24 h. The MTS assay was performed following a 96 h incubation with varying concentrations of the tested compounds. Additionally, a 20 µM solution of CuSO4, FeSO4 or FeCl3 was added into wells with the tested compounds. The results were expressed as a percentage of the control and calculated as the inhibitory concentration (IC50) values using GraphPad Prism 5. Each individual compound was tested in triplicate in a single experiment with each experiment being repeated three times.

In the next assay the test system is cdc2. The assay is described as follows: Western blot of cdc2. Type of assay: cell-based, human. Conditions: HCT116, 1 µM. How it is done:
as §1

Assay [1] relates to HCT116. Also noted: method as in PMID 25329549. The conditions noted are these: 96 h incubation, MTS; cited from earlier work.
For a further assay, the system named is calf-thymus DNA (CT-DNA). The assay is described as follows: Intercalation, absorption spectra with CT-DNA. Type of assay: binding. The protocol: For the DNA binding studies, Calf-thymus DNA (CT-DNA) was purchased from Sigma Aldrich. The lyophilized CT-DNA was dissolved in 10 mM Tris-HCl, pH 7.9, mixed gently and left overnight at 4° C. The purity of the CT-DNA solution was determined by measuring the ratio of UV absorbance at 260 and 280 nm. […] Then, the concentration of CT-DNA was determined from the absorbance at 260 nm using an extinction coefficient of 6600 M^–1cm^–1. The tested TSC and DOX were dissolved in DMSO to a concentration of 8.35 mM, which was then used as the stock solution for preparing the various concentrations (25, 12.5, 6 and 3 µM) in 1 mL in 10 mM of Tris-HCl (pH 7.9). Afterwards, 18 µM CT-DNA was added to the prepared solutions, which were incubated for 1.5 h at 37° C with occasional vortexing. The absorption spectra were measured using a Hitachi U-2900 spectrophotometer in range of 200–500 nm. All absorption spectra were imported and compared in OriginPro 8.0.

For a further assay, the system named is HCT116 cells. The assay is described as follows: Time dependent measurement of ROS level. The assay is classed as cell-based, human. The conditions noted are these: 1 µM; 3, 6, 9, 12, 24 h. How it is done: To determine the intracellular levels of ROS, HCT116 cells were seeded onto black 96-well plates (Corning) at a density of 9,000 cells/well and incubated at 37° C. After an overnight incubation, the solutions of the tested compounds: 1a-c, 2 a-b, 3 a-c, Dp44mT (1 μM) and DOX (5 μM) were added and incubated for 3, 6, 9, 12, and 24 h in a kinetic experiment. The generation of ROS was measured using a CellROX® Green Reagent (Molecular Probes™). Additionally, the quantity of cells in each well was determined using Hoechst 33342 (Molecular Probes™). The solutions of the tested compounds were removed and 100 µL of CellROX Green Reagent and Hoechst 33342 at a final concentration of 5 μM were added to each well. Then, the cells were incubated for 30 min at 37° C. The fluorescence was measured using a multi-plate reader (Synergy 4, Bio Tek) at 485 nm excitation and a 520 nm emission for CellROX Green Reagent and a 345 nm excitation laser and a 485 nm emission filter for Hoechst 33342. The experiments were performed three to four times. ROS levels were expressed as the percentage of the control cells level.

Assay [2] has as its system HCT116. The assay is described as follows: MTS antiproliferative assay, HCT116 (with or without added metal ions). The conditions noted are these: 96 h. Type of assay: cell-based, human. How it is done: as §2, §3
In a further assay the test system is MnSOD. The assay is described as follows: mRNA expression (Real-Time PCR) of MnSOD. Type of assay: cell-based, human. Conditions: HCT116, TSC 1 µM, 12 or 24 h. How it is done: (§4) The HCT116 cells were seeded in 3 cm Petri dishes (Nunc) at a density of 0.5·10^6 cells/well and incubated overnight. Next, the medium was removed and solutions of TSC (1 μM) and DOX (5 μM) were added. After 12 or 24 h, total RNA was isolated from the cells using TRIzol Reagent (Ambion) according to the manufacturer’s instructions. cDNA synthesis was performed with 5 μg of total RNA using a GoScript™ Reverse Transcriptase kit (Promega) and Oligo(dT)23 Primers (Sigma). The Real-Time PCR was performed with a CTX96 Touch™ Real-Time PCR Detection System (Biorad) in a 20 μL reaction volume. The reaction consisted of PowerUp™ SYBR® Green Master Mix (Applied Biosystems), a primer pair mix (0.5 μM each) and 1 μL of cDNA. All primer pair sequences were purchased from Sigma-Aldrich and are listed in Supplementary Table 2. The experiment was performed under the following conditions: initial denaturation at 95° C for 120 sec; followed by 40 denaturation cycles at 95° C, 15 sec; annealing (primer-specific temperature for 30 sec) and extension at 72° C for 60 sec. Data was analyzed based on a comparison of the expression of the target genes to a reference gene – β-actin, using the 2^–ΔΔCT method. The experiments were performed at least three times.

In another assay the test system is NHDF. Also noted: method as in PMID 25329549. The conditions noted are these: 96 h incubation, MTS; cited from earlier work.
A further assay relates to Ndrg1. Nature of the assay: mRNA expression (Real-Time PCR) of Ndrg1. Type of assay: cell-based, human. Conditions: HCT116, TSC 1 µM, 24 h. The protocol:
as §4

Where two headings read alike, the source gives them in different places.

On to `S=C(NN=C(c1ccccn1)c1ccccn1)N1CCN(c2cnccn2)CC1` [Compound 3c], for which the “expression of p21 protein (densitometric analysis)” value with p21 is on record as “marked up-regulation”. Also, the IC50 in the assay with MCF-7 (96 h, 20 µM CuSO4 added, read-out: Activity - IC50 MCF-7+ Cu^2+) was 4.41 ± 1.5 nM; in the assay with MCF-7 (96 h, 20 µM FeCl3 added, read-out: Activity - IC50 MCF-7+ Fe^3+) it was 16.6 ± 2.25 nM; with MCF-7 (96 h incubation, MTS, read-out: Activity - IC50 MCF-7) it was 25.6 ± 6.74 nM; with HCT116 [1], 37.8 ± 3.05 nM; in the assay on HCT116 [2] (20 µM CuSO4 added, read-out: Activity - IC50 HCT116+ Cu^2+) it was 4.95 ± 1.64 nM; with HCT116 [2] (20 µM FeCl3 added, read-out: Activity - IC50 HCT116+ Fe^3+) it was 29.5 ± 3.69 nM. Further, the IC50 in the assay on NHDF is 13.85 ± 0.03 nM. Besides, in the assay with cdc2, the “expression of cdc2 protein (densitometric analysis)” value is recorded as “strongest decreasing effect”. The “% hypochromism” value in the assay on calf-thymus DNA (CT-DNA) (bound to CT-DNA) is 28.5%. Further, in the assay with calf-thymus DNA (CT-DNA) (bound to CT-DNA), the Changes in absorbance result is “hypochromism”. The same compound yielded a Δε in the assay on calf-thymus DNA (CT-DNA) (bound to CT-DNA) of 3220.0 M⁻¹ cm⁻¹. The blue/red shift in the assay on calf-thymus DNA (CT-DNA) (wavelengths of maximum absorption, compound alone vs DNA-bound) came out at 2 nm. For the same compound, the “level of ROS, normalized to untreated cells” value in the assay on HCT116 cells is on record as “only a minute increase”. The “mRNA expression of MnSOD” value in the assay with MnSOD is on record as “large drop”. The “mRNA expression of Ndrg1” value with Ndrg1 was “strongest”.
